Reference: ChEMBL document CHEMBL1909046, “DrugMatrix in vitro pharmacology data”

How the values were obtained:
[1] = target: T1, Vasoactive intestinal polypeptide receptor 1 (Homo sapiens, UniProt P32241); format: cell membranes, Membrane; settings: ht-29; also: in other assays of this panel Not Active means under 50% inhibition at 10 µM
T1 sequence (P32241 whole entry): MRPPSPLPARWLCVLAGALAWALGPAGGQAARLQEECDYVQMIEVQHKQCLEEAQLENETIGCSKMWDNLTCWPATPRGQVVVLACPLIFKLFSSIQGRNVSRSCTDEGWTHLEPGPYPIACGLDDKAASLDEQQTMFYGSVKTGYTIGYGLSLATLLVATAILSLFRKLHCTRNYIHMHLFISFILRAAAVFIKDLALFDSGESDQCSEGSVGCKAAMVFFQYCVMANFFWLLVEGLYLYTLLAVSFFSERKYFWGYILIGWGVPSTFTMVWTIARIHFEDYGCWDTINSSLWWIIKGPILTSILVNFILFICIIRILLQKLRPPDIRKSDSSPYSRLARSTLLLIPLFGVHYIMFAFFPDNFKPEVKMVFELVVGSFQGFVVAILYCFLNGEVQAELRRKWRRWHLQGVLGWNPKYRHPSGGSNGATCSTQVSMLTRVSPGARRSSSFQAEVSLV

Caspase-1 = target: T2, Caspase-1 (Homo sapiens, UniProt P29466); set-up: species or system Escherichia coli;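 also: Caspase-1 enzyme inhibition assay with a peptide substrate; in other assays of this panel Not Active means under 50% inhibition at 10 µM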
T2 sequence (P29466 whole entry): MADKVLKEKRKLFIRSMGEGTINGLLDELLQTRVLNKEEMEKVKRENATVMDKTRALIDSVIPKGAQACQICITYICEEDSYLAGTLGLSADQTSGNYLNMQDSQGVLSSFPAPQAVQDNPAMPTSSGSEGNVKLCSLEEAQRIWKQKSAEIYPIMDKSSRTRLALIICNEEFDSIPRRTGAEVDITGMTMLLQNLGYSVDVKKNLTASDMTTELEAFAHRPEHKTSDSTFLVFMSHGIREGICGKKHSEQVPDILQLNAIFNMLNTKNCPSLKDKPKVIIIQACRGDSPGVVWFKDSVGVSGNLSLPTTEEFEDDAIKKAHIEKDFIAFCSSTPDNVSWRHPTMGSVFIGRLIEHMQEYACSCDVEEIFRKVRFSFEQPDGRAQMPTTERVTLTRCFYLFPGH

[2] = target: T3, Alpha-2C adrenergic receptor (Homo sapiens, UniProt P18825); assay: DRUGMATRIX: Adrenergic Alpha-2C radioligand binding (ligand: [3H] MK-912); format: cell membranes, Sf9, Membrane
T3 sequence (P18825 whole entry): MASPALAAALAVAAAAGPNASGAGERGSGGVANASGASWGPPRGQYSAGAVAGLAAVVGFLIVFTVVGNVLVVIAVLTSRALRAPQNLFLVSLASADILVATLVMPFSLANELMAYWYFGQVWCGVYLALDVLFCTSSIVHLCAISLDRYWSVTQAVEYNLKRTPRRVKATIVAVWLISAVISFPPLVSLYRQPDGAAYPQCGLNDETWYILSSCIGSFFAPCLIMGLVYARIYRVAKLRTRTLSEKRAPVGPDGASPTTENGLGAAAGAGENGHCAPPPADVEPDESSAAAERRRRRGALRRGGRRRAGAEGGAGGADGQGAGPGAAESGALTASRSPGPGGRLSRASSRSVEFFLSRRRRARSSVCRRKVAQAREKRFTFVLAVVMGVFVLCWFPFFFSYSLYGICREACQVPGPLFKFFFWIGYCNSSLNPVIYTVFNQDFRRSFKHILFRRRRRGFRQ

Acetylcholinesterase = Acetylcholinesterase (Homo sapiens, UniProt P22303); assay: DRUGMATRIX: Acetylcholinesterase enzyme inhibition (substrate: acetylthiocholine); format: cell-based, HEK293; settings: hek293; Not Active = under 50% inhibition at 10 µM
[3] = target: T4, Alpha-1A adrenergic receptor (Rattus norvegicus, UniProt P43140); assay: DRUGMATRIX: Alpha-1A adrenergic receptor radioligand binding (ligand: prazosin); format: cell membranes, Wistar, Submaxillary gland, Membrane; settings: Not Active = under 50% inhibition at 10 µM
T4 sequence (P43140 whole entry): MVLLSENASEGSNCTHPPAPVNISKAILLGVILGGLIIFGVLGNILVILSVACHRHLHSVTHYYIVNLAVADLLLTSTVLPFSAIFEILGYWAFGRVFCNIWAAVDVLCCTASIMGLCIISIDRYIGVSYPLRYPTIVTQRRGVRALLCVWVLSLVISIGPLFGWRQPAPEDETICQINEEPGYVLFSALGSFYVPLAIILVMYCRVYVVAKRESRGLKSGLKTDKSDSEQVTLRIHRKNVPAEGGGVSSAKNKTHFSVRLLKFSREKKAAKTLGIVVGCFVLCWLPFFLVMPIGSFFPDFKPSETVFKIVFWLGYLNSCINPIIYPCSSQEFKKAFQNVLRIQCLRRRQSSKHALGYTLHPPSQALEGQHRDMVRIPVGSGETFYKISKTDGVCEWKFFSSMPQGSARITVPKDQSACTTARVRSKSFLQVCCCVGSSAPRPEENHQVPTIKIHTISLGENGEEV

[4] = target: Protein kinase C alpha type (Homo sapiens, UniProt P17252); format: cell-based; settings: sf9;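 also: inhibition of PKCalpha kinase activity measured in an enzyme assay with histone as the phosphorylation substrate; in other assays of this panel Not Active means under 50% inhibition at 10 µM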
[5] = target: 5-hydroxytryptamine receptor 1B (Rattus norvegicus, UniProt P28564); format: cell membranes, Wistar, Cerebral cortex, Membrane; also: in other assays of this panel Not Active means under 50% inhibition at 10 µM
Sequence of 5-hydroxytryptamine receptor 1B (P28564 whole entry): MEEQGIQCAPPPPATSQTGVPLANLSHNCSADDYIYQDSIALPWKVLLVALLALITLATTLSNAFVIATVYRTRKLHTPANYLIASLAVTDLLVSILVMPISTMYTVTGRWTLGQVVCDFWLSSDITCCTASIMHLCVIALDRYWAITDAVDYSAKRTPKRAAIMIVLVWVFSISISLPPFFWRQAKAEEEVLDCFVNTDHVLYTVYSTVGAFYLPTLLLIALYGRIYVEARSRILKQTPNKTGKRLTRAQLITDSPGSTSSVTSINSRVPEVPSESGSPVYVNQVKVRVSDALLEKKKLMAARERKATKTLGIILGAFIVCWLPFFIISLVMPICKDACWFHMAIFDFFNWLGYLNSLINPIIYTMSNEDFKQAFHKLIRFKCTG

Sequence of Acetylcholinesterase (P22303 whole entry): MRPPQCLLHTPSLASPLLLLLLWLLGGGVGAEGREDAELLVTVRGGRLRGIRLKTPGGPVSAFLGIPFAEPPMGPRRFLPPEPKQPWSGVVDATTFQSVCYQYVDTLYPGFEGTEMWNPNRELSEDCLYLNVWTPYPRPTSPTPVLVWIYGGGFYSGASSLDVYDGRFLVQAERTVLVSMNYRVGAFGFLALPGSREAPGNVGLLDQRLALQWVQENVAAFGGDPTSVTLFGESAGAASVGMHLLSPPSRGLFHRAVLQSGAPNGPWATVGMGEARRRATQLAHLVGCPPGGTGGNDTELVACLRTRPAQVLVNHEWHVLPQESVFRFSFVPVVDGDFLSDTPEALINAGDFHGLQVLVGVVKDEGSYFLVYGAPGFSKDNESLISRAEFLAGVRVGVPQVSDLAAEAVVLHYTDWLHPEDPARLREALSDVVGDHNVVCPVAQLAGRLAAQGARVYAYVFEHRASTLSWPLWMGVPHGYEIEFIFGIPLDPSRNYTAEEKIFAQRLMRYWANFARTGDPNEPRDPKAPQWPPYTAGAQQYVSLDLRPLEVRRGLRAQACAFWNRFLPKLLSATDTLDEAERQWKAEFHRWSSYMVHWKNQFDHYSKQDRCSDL

| SMILES | IC50 [1] | IC50 (Caspase-1) | IC50 ([2]; sf9) | IC50 (Acetylcholinesterase) | IC50 [3] | IC50 [4] | IC50 [5] | IC50 ([2]; read-out: IC50) [nM] | Ki ([2]; read-out: Ki) [nM] | IC50 ([3]; read-out: IC50) [nM] | Ki ([3]; read-out: Ki) [nM] | IC50 ([5]; read-out: IC50) [nM] | Ki ([5]; read-out: Ki) [nM] |
| --- | --- | --- | --- | --- | --- | --- | --- | --- | --- | --- | --- | --- | --- |
| CCOc1nc2cccc(C(=O)O)c2n1Cc1ccc(-c2ccccc2-c2nnn[nH]2)cc1 | Not Active | Not Active | Not Active | Not Active | Not Active | Not Active | Not Active |  |  |  |  |  |  |
| O=C(O)CCCc1cccs1 | Not Active | Not Active | Not Active | Not Active | Not Active | Not Active | Not Active |  |  |  |  |  |  |
| COc1ccccc1N | Not Active | Not Active | Not Active | Not Active | Not Active | Not Active | Not Active |  |  |  |  |  |  |
| O=C(c1ccccc1F)N1CCC(Cc2ccccc2)CC1 | Not Active | Not Active | Not Active | Not Active | Not Active | Not Active | Not Active |  |  |  |  |  |  |
| Cc1c(O)cccc1C(=O)N[C@@H](CSc1ccccc1)[C@H](O)CN1C[C@H]2CCCC[C@H]2C[C@H]1C(=O)NC(C)(C)C | Not Active | Not Active | Not Active | Not Active | Not Active | Not Active | Not Active |  |  |  |  |  |  |
| CC(O)COC[C@H]1O[C@@H]2O[C@H]3[C@H](O)[C@@H](O)[C@@H](O[C@H]4[C@H](O)[C@@H](O)[C@@H](O[C@H]5[C@H](O)[C@@H](O)[C@@H](O[C@H]6[C@H](O)[C@@H](O)[C@@H](O[C@H]7[C@H](O)[C@@H](O)[C@@H](O[C@H]8[C@H](O)[C@@H](O)[C@@H](O[C@H]1[C@H](O)[C@H]2O)O[C@@H]8COCC(C)O)O[C@@H]7COCC(C)O)O[C@@H]6COCC(C)O)O[C@@H]5COCC(C)O)O[C@@H]4COCC(C)O)O[C@@H]3COCC(C)O (stereo partly drawn) [2-HYDROXYPROPYL-BETA-CYCLODEXTRIN] | Not Active | Not Active | Not Active | Not Active | Not Active | Not Active | Not Active |  |  |  |  |  |  |
| NC(=O)c1cccc(N)c1 [3-AMINOBENZAMIDE] | Not Active | Not Active | Not Active | Not Active | Not Active | Not Active | Not Active |  |  |  |  |  |  |
| C[C@H]1O[C@H](O[C@H]2[C@H](O)[C@@H](O)[C@@H](O[C@H]3[C@H](O)[C@@H](O)C(O)O[C@@H]3CO)O[C@@H]2CO)[C@H](O)[C@@H](O)[C@@H]1N[C@H]1C=C(CO)[C@@H](O)[C@H](O)[C@H]1O (some centres not stated) [ACARBOSE] | Not Active | Not Active | Not Active | Not Active | Not Active | Not Active | Not Active |  |  |  |  |  |  |
| CC[C@H]1[C@@H]2C[C@H]3[C@@H]4N(C)c5ccccc5[C@]45C[C@@H]([C@@H]2[C@H]5O)N3[C@@H]1O [AJMALINE] | Not Active | Not Active | Not Active | Not Active | Not Active | Not Active | Not Active |  |  |  |  |  |  |
| NC12CC3CC(CC(C3)C1)C2 [AMANTADINE] | Not Active | Not Active | Not Active | Not Active | Not Active | Not Active | Not Active |  |  |  |  |  |  |
| NCCCNCCSP(=O)(O)O [AMIFOSTINE] | Not Active | Not Active | Not Active | Not Active | Not Active | Not Active | Not Active |  |  |  |  |  |  |
| CN(C)CCC=C1c2ccccc2CCc2ccccc21 [AMITRIPTYLINE] | Not Active | Not Active |  | Not Active |  | Not Active |  | 59 | 8.6 | 14 | 5.6 | 3730 | 1690 |
